In data set [1] the target is T1, Prostaglandin G/H synthase 1 (Ovis aries, UniProt P05979).
T1 sequence (P05979 whole entry): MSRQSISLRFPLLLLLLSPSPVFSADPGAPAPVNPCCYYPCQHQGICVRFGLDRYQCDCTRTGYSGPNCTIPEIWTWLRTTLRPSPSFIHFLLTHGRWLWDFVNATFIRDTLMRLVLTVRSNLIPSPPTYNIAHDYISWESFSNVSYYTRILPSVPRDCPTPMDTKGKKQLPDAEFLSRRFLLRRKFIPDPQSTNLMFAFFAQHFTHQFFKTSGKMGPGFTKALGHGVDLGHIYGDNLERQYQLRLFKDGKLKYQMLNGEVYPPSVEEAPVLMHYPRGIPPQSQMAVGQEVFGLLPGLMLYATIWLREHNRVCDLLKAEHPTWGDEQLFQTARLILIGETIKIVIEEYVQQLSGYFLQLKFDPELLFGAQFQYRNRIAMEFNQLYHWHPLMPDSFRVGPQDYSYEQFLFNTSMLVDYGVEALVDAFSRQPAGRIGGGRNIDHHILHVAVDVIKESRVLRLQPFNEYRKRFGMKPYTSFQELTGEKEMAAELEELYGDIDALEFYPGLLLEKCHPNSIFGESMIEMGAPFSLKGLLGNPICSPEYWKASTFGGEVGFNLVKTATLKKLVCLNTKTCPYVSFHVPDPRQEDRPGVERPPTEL
The experiment in a line: Inhibition of ovine COX1 using arachidonic acid as substrate incubated for 10 mins followed by substrate addition and measured after 2 mins by EIA assay.

Data set [2] can be described thus: Protein binding in plasma (unknown origin). To be noted: read-out: PPB (converted). It counts as ADME, cell-free.
Data set [3] in a line: Ratio of drug level in brain to blood (unknown origin). It counts as ADME, tissue-based. The note with it: read-out: BBR.
Data set [4] in a line: Solubility of compound in pure water. The format is physicochemical.
Data set [5] is described as follows: Drug absorption in human intestine. The format is ADME, tissue-based. The note with it: read-out: Drug absorption.
The target of data set [6] is Prostaglandin G/H synthase 1 (Homo sapiens) (UniProt P23219). The experiment in a line: Inhibition of calcium ionophore-activated COX1 in human whole blood assessed as TXB2 level at 1 uM by ELISA. The format is tissue-based. A general note: An ELISA detects its analyte on a solid surface through an enzyme-linked reagent.
The test system of data set [7] is Rattus norvegicus. The experiment in a line: Analgesic activity in Wistar rat assessed as reduction in acetic acid-induced writhing at 10 mg/kg, ip incubated for 30 mins followed by acetic acid addition and observed for 30 mins relative to control. To be noted: 0.5 h. The format is functional. (In general: In writhing tests, fewer writhes than in controls are read as antinociception.)

Data set [8] deals with Rattus norvegicus. The experiment in a line: Analgesic activity in Wistar rat assessed as reduction in formalin-induced flitching in neurogenic phase at 10 mg/kg, ip incubated for 30 mins followed by formalin addition and observed for 60 mins. The format is functional, organism-based.
Data set [9] addresses T2, Prostaglandin G/H synthase 2 (Rattus norvegicus) (UniProt P35355).
T2 sequence (whole entry): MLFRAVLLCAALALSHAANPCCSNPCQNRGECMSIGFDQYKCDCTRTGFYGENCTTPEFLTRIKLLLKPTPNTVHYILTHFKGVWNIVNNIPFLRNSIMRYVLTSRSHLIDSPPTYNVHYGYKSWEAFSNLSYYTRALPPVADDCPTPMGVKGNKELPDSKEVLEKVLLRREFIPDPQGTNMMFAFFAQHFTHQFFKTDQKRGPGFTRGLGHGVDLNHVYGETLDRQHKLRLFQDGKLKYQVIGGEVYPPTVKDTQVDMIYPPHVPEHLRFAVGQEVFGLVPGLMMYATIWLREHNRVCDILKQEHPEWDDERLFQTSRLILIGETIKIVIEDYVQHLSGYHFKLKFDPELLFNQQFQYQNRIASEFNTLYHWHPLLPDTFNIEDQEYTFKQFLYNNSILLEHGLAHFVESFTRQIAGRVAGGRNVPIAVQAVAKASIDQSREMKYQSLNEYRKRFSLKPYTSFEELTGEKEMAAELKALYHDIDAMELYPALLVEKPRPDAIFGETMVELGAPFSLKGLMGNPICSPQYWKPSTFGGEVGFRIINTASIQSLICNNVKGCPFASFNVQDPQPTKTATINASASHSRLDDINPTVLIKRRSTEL
The experiment in a line: In vivo inhibition of COX2 in Wistar rat assessed as reduction in formalin-induced COX2 expression at 10 mg/kg, ip incubated for 30 mins followed by formalin addition and measured after 2 hrs by immunofluorescence based assay. The format is functional, organism-based.

Data set [10] relates to Rattus norvegicus. The experiment in a line: Analgesic activity in Wistar rat assessed as reduction in formalin-induced flitching in inflammatory phase at 10 mg/kg, ip incubated for 30 mins followed by formalin addition and observed for 60 mins. The format is functional, organism-based.
For data set [11], the system named is Rattus norvegicus. The experiment in a line: Analgesic activity in Wistar rat assessed as reduction in acetic acid-induced writhing at 10 mg/kg, ip incubated for 30 mins followed by acetic acid addition and observed for 30 mins. It counts as functional, organism-based.
A short description of data set [12]: Acute toxicity in Wistar rat assessed as behavioral alterations at 2000 mg/kg, po observed for 14 days. The note with it: in vivo, 336 h. The format is organism-based.
The nature of data set [13]: Acute toxicity in Wistar rat assessed as effect on liver at 2000 mg/kg, po measured after 14 days by hematoxylin-eosin staining based light microscopy. It counts as organism-based. To be noted: in vivo, 336 h.
Data set [14] can be described thus: Acute toxicity in Wistar rat assessed as effect on kidney at 2000 mg/kg, po measured after 14 days by hematoxylin-eosin staining based light microscopy. To be noted: in vivo, 336 h. The format is organism-based.

As a reminder, the IC50 is the concentration that gives 50% inhibition. One may read the solubility as how much of the substance goes into solution per volume. High values mean much dissolved substance, low ones little dissolved substance. In general, inhibition in vivo refers to the drop in the measured response relative to a control, in per cent.

The structures appear in SMILES notation. Values after ≈ are worked out from the molar mass of the structure shown. Active and inactive are the calls of the source. The rule behind the calls is not given here. Where only a bound is given, the exact number is not on record here.

Prostaglandin G/H synthase 1 (Homo sapiens), sequence (P23219 whole entry): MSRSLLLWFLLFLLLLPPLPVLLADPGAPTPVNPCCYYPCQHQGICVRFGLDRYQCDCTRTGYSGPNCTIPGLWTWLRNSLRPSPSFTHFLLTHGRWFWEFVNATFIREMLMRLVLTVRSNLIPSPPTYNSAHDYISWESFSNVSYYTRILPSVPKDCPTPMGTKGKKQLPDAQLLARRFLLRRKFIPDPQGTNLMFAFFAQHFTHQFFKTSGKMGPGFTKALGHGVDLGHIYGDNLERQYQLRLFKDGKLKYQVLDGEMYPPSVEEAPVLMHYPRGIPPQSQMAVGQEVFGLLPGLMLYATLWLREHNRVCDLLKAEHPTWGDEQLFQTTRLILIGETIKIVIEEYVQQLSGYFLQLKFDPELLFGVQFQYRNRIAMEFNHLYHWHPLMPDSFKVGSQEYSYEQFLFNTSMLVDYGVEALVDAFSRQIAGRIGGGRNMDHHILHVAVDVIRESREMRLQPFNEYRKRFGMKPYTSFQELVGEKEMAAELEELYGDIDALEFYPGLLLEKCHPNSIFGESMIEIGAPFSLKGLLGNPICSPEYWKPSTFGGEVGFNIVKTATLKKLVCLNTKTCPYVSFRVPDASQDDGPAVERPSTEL

`COC(=O)[C@H](Cc1ccccc1)n1cc(COc2nc(Cl)nc(Nc3ccc(N4CCOCC4=O)cc3)n2)nn1` returned an IC50 in data set [1] of 8 µM.
As to `COC(=O)[C@H](Cc1ccc(O)cc1)n1cc(COc2nc(Cl)nc(N3CCCC3)n2)nn1`, in data set [1], the IC50 is > 10 µM.
As to `COC(=O)[C@H](Cc1ccccc1)n1cc(COc2nc(Cl)nc(N3CCOCC3)n2)nn1`, the IC50 in data set [1] is > 10 µM.
Same read-out and setting: the figure for `Clc1nc(OCc2cn(Cc3ccccc3)nn2)nc(N2CCOCC2)n1` is > 10 µM.
Regarding `O=C1COCCN1c1ccc(Nc2nc(Cl)nc(N3CCCC3)n2)cc1`, the IC50 in data set [1] is > 10 µM. In addition, the fraction unbound in [2] is 0.143. Moreover, in data set [3], the Kp was 0.01. In data set [4], this molecule came in with a solubility of 4910 µg/mL (≈ 13.1 mM). In data set [5], the Fa was 96.8%.
Regarding `O=C(O)c1ccccc1Nc1nc(Cl)nc(Nc2ccc(N3CCOCC3=O)cc2)n1`, the IC50 in data set [1] is > 10 µM.
For the molecule `COC(=O)[C@@H](N)Cc1cn(-c2nc(Cl)nc(Nc3ccc(N4CCOCC4=O)cc3)n2)c2ccccc12`, the IC50 in [1] was > 10 µM. In addition, the Activity in [6] turned out to be 0.9 ng/mL. Further, the inhibition in vivo at 10 mg/kg with Rattus norvegicus [7] came out at 73%. Also, the outcome with Rattus norvegicus [8] and in the data set on Rattus norvegicus [10] was Active. The inhibition result in data set [9] is “Active”. Further, in data set [2], the fraction unbound was 0.124. In data set [3], the Kp came out at 0.09. Moreover, in data set [4], the solubility worked out at 30 µg/mL (≈ 0.0575 mM). In addition, the Fa in data set [5] is 97.2%.
As to `COC(=O)[C@H](Cc1ccccc1)n1cc(COc2nc(Cl)nc(N3CCCC3)n2)nn1`, the IC50 in data set [1] is > 10 µM.
Consider `COC(=O)[C@H](Cc1ccccc1)Nc1nc(Cl)nc(Nc2ccc(N3CCOCC3=O)cc2)n1`, for which the IC50 in data set [1] is > 10 µM. Further, the result in the data set with Rattus norvegicus [11] was Active.
The molecule `Clc1ccc(Nc2nc(Cl)nc(OCc3cn(Cc4ccccc4)nn3)n2)cc1` returned an IC50 in [1] of 4 µM.
`COc1ccc2c(c1)c(CC(=O)O)c(C)n2C(=O)c1ccc(Cl)cc1` [INDOMETHACIN]: the Activity in data set [6] is 0.59 ng/mL. Further, in the data set on Rattus norvegicus [7], the inhibition in vivo at 10 mg/kg is 70%. Besides, the outcome in the data set with Rattus norvegicus [8] and with Rattus norvegicus [10] was Active.
Consider `CC[C@H](C)[C@H](Nc1nc(Cl)nc(Nc2ccc(N3CCOCC3=O)cc2)n1)C(=O)OC`, for which the IC50 in [1] is > 10 µM. In addition, the result in the data set on Rattus norvegicus [11] was Active.
In the case of `COC(=O)[C@H](Cc1ccc(O)cc1)n1cc(COc2nc(Cl)nc(Nc3ccc(N4CCOCC4=O)cc3)n2)nn1`, in data set [1], the IC50 is > 10 µM.
The molecule `Clc1nc(OCc2cn(Cc3ccccc3)nn2)nc(N2CCCC2)n1` yielded an IC50 in [1] of 8 µM.
Consider `N[C@@H](Cc1cn(-c2nc(Cl)nc(N3CCOCC3)n2)c2ccccc12)C(=O)O`, for which it took 1 µM to reach half-maximal inhibition in data set [1] (IC50). In data set [2], the fraction unbound is 0.324. Further, the Kp in data set [3] came to 0.19. This molecule had a solubility in data set [4] of 5810 µg/mL (≈ 14.4 mM). Further, the Fa in [5] came out at 96.9%.
On to `COC(=O)[C@H](Cc1cn(-c2nc(Cl)nc(Nc3ccc(N4CCOCC4=O)cc3)n2)c2ccccc12)NC(=O)OC(C)(C)C`, for which the result in the data set on Rattus norvegicus [11] was Active.
On to `COC(=O)[C@H](Cc1c[nH]c2ccccc12)n1cc(COc2nc(Cl)nc(N3CCCCC3)n2)nn1`, for which the IC50 in [1] is > 10 µM.
As to `COC(=O)[C@@H](N)Cc1cn(-c2nc(Cl)nc(N3CCCCC3)n2)c2ccccc12`, the concentration for half-maximal inhibition (IC50) in [1] was > 10 µM. Besides, the Activity in data set [6] was 0.84 ng/mL; in data set [12], “Non-Toxic”; in data set [13], “Non-Toxic”; in data set [14], “Non-Toxic”. In addition, the inhibition in vivo at 10 mg/kg in the data set with Rattus norvegicus [7] was 65%. Further, the outcome in the data set with Rattus norvegicus [8] and in the data set with Rattus norvegicus [10] was Active. The inhibition entry in data set [9] is “Active”. In addition, the fraction unbound in data set [2] was 0.149. Also, the Kp in data set [3] was found to be 0.66. This molecule had a solubility in [4] of 740 µg/mL (≈ 1.78 mM). Moreover, in [5], the Fa was found to be 98.2%.
Regarding `COC(=O)[C@@H](N)Cc1ccc(Oc2nc(Cl)nc(N3CCCCC3)n2)cc1`, in data set [1], the IC50 was > 10 µM.
Take `COC(=O)[C@H](Cc1c[nH]c2ccccc12)n1cc(COc2nc(Cl)nc(N3CCOCC3)n2)nn1`: the IC50 in data set [1] is > 10 µM.
In the case of `COC(=O)[C@H](Cc1ccc(O)cc1)n1cc(COc2nc(Cl)nc(N3CCOCC3)n2)nn1`, the IC50 in [1] is > 10 µM.
Still for that read-out and setting: in the case of `O=C1COCCN1c1ccc(Nc2nc(Cl)nc(OCc3cn(Cc4ccccc4)nn3)n2)cc1` it was 6 µM.
Take `COC(=O)[C@@H](N)Cc1ccc(Oc2nc(Cl)nc(N3CCOCC3)n2)cc1`: in the data set on Rattus norvegicus [11], the outcome was Active.
In the case of `COC(=O)[C@@H]1CCCN1c1nc(Cl)nc(Nc2ccc(N3CCOCC3=O)cc2)n1`, the result in the data set with Rattus norvegicus [11] was Active.
Turning to `COC(=O)[C@H](Cc1ccccc1)n1cc(COc2nc(Cl)nc(Nc3ccc(Cl)cc3)n2)nn1`, the IC50 in data set [1] came to 5 µM.
